In ChEMBL document CHEMBL2331181, “Synthesis and in vitro cytotoxic activity evaluation of novel heterocycle bridged carbothioamide type isosteviol derivatives as antitumor agents” (Bioorg Med Chem Lett, 2013):

How the values were obtained:
Format in all cases: functional, cell-based
Raji = experiment: Cytotoxicity against human Raji cells after 48 hrs by MTT assay
HeLa = experiment: Cytotoxicity against human HeLa cells after 48 hrs by MTT assay
SGC-7901 = experiment: Cytotoxicity against human SGC7901 cells after 48 hrs by MTT assay; conditions: SGC-7901, 48 h
A549 = experiment: Cytotoxicity against human A549 cells after 48 hrs by MTT assay; conditions: A549, 48 h

Compound | IC50 (Raji) | IC50 (HeLa) | IC50 (SGC-7901) | IC50 (A549)
CCOC(=O)[C@]1(C)CCC[C@@]2(C)[C@@H]3CC[C@@]4(C)C[C@]3(CC[C@@H]21)[C@@H]1CON(C(=S)Nc2ccccc2)[C@@H]14 | 32.5 µM | > 50 µM | 27.6 µM | > 50 µM
CCOC(=O)[C@]1(C)CCC[C@@]2(C)[C@@H]3CC[C@@]4(C)C[C@]3(CC[C@@H]21)[C@@H]1CON(C(=S)Nc2ccccc2F)[C@@H]14 | 32.7 µM | > 50 µM | 28.2 µM | > 50 µM
CCOC(=O)[C@]1(C)CCC[C@@]2(C)[C@@H]3CC[C@@]4(C)C[C@]3(CC[C@@H]21)[C@@H]1CON(C(=S)Nc2cccc(F)c2)[C@@H]14 | 36.4 µM | > 50 µM | > 50 µM | > 50 µM
C[C@@]12CC[C@@H]3[C@@](CC[C@H]4[C@@]3(C)CCC[C@@]4(C)C(=O)O)(CC1=O)C2 [ISOSTEVIOL] | > 50 µM | > 50 µM | > 50 µM | > 50 µM
